# pIC50: −log10 of the molar value. Like-named read-outs stand apart in the source and are kept apart here.
# Columns and labels:
# [1] = test system: TNF-α Secretion in Raw Cells (Raw 264.7 cells); experiment: Cell-based assay for inhibition of TNF-α secretion in Raw cells; settings: Mus musculus, RAW264.7, 4 h, read-out: TNF-α Secretion in Raw Cells IC50
# Protocol: Cell-Based Assay for Inhibition of TNF-A Secretion in Raw Cells
# The basic measurement of the assay is the percentage of inhibition of TNF-α secretion and the IC50 determination by a fitting with the model-39 of LSW data analysis tool.
# Raw 264.7 cells (ATCC Cat No. TIB-71) are maintained in DMEM medium containing 10% of serum, P/S, and Glutamine. […] For testing compounds, cells are cultured to confluence and are seeded the day before the experiment in 24 well culture dishes at 0.5 to 1 million/ml/well. On the next morning, the medium from the overnight culture is replaced with the fresh growth medium. The compounds are added at various concentrations at the 0.2% of final DMSO concentrations (10 μl of a 20% DMSO solution containing testing compounds is added to each well). The cells are pre-incubated with compounds for 1 hour. LPS (Sigma, L2262) is added to cells at a final concentration of 100 ng/ml (10 μl of a […] LPS solution freshly diluted from a 1 mg/ml LPS stock solution in PBS is added to each well) and cells are further incubated for 4 hours at 37° C. One milliliter (1 ml) of the supernatant was collected, cells are spun down and the supernatants are frozen at −80° C. until use.
# The TNF-α and other proinflammatory cytokines were detected by ELISA assay according to the manufacturer's instruction (Biosource International, Inc., Camarillo, Calif.) (For IL-1b measurement in Raw cells, one round of freeze and thaw of the cells was required.)
# [2] = biological target: T1, catalytic domain of the recombinant TACE protein (Homo sapiens, UniProt P78536); experiment: TACE FRET assay using TACE cat; type: biochemical; settings: for inhibition at 1 µM: read-out: TACE Inhibition (%)
# T1 construct: The catalytic domain of the recombinant TACE protein was expressed and purified; made in house
# Summary of the method: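 Enzyme (1 ug/ml) pretreated with inhibitor for 10 min at room temperature in 50 mM Tris-HCl pH 7.4, 25 mM NaCl, 4% glycerol, 0.005% Brij 35, then started with FRET peptide Abz-[sequence]-Dpa (2 mM stock). Initial rate taken from fluorescence slope; IC50 fitted with floated Hill slope and background.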
# [3] = biological target: T2, recombinant human catalytic domain of MMP-13 (Homo sapiens, UniProt P45452); experiment: biochemical
# T2 construct: catalytic domain of MMP-13 (165 amino acids, residues 104-268, 19 kDa)
# Source text: (§1) A continuous assay was used in which the substrate is a synthetic peptide containing a fluorescent group (7-methoxycoumarin; Mca) that is quenched by energy transfer to a 2,4-dinitrophenyl group. See Knight, C. G. et al., FEBS Lett. (1992) 296: 263-266, incorporated herein by reference in its entirety. […] See Zhang, Y et al., Journal of Pharmacology and Experimental Therapeutics (JPET) (2004) 309:348-355, incorporated by reference in its entirety. The substrate used was Mca-PQGL-(3-[2,4-dinitrophenyl]-L-2,3-diaminopropionyl)-AR-OH (denoted as Wammp-5, custom synthesized by AnaSpec, Inc., San Jose, Calif.). The assay buffer consisted of 50 mM Hepes (pH 7.4), 100 mM NaCl, 5 mM CaCl2, and 0.005% Brij-35. Each well of black polystyrene 96-well plates contained a 200 μl reaction mixture consisting of assay buffer, purified MMP (final concentration of 25 ng/ml, prepared by diluting with the assay buffer), and varied concentrations of inhibitor (prepared by serially diluting a given inhibitor in DMSO in 96-well polypropylene plate). The plates were then incubated at 30° C. for 15 minutes. The enzymatic reactions were initiated by adding the substrate to a final concentration of 20 μM, and mixing 10 times with a pipette. The final DMSO concentration in the assay was 6.0%. The initial rate of the cleavage reaction was determined at 30° C. with a fluorescence plate reader (excitation filter of 330 nm and emission filter of 395 nm) immediately after substrate addition.
# (§2) Plots of the inhibitor concentration versus the percent inhibition were fit to the following equation: y=(a−d)/[1+(x/c)^b]+d, a general sigmoidal curve with Hill slope, a to d. x is the inhibitor concentration under test. “y” is the percent inhibition. “a” is the limiting response as x approaches zero. As x increases without bound, y tends toward its limit d. “c” is the inflection point (IC50) for the curve. That is, y is halfway between the lower and upper asymptotes when x=c. “b” is the slope factor or Hill coefficient.
# In-Vitro Fluorescence Assay of MMP-13 Activity
# See Zhang, Y et al., Journal of Pharmacology and Experimental Therapeutics (JPET) (2004) 309:348-355, incorporated by reference in its entirety.
# recombinant human MMP-2 = biological target: T3, recombinant human MMP-2 (Homo sapiens, UniProt P08253); experiment: In-vitro fluorescence (FRET) assay of MMP-2 activity; type: biochemical
# T3 construct: purchased Oncogene Research Products (Calbiochem) PF023
# Source text: as §1, §2
# In-Vitro Fluorescence Assay of MMP-2 Activity
# [4] = TACE FRET assay, catalytic domain of recombinant TACE, read-out: TACE IC50
# T3 sequence (P08253 110-660): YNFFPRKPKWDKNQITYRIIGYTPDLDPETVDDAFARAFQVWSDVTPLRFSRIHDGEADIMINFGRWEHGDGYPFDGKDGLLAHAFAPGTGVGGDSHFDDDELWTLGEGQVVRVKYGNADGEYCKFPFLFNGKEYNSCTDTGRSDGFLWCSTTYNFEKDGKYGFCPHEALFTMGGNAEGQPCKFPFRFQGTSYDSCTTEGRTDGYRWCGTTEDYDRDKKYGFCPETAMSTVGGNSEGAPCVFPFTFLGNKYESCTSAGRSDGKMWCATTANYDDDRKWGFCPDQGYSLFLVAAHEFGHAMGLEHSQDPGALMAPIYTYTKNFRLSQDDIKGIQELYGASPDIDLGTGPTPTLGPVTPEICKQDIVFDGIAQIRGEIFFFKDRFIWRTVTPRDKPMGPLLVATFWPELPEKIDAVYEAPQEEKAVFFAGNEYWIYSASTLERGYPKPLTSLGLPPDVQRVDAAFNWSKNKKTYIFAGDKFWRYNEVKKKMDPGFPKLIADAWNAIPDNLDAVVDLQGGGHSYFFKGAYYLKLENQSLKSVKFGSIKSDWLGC
# T1 sequence (P78536 223-474 limits assumed): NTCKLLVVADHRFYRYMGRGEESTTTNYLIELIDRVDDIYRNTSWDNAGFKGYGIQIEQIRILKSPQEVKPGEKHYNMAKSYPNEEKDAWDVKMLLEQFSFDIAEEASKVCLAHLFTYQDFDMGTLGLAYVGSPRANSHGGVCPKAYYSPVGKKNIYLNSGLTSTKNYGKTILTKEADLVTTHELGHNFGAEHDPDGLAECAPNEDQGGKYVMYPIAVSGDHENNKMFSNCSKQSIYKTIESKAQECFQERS
compound,measurement,setting,value
"CC#CCOc1ccc(S(=O)(=O)N[C@H](Cc2cn(CCCCOc3ccccc3)c3ccccc23)C(=O)O)cc1 [Example 24, N-{[4-(but-2-ynyloxy)phenyl]sulfonyl}-1-(4-phenoxybutyl)-D-tryptophan]",pIC50,[1],< 4.22
same,pIC50,[2]; [4],5.90
"CC#CCOc1ccc(S(=O)(=O)NC(Cc2c[nH]c3ccc(OCc4ccccc4)cc23)C(=O)O)cc1 (racemic) [Example 20, 5-(benzyloxy)-N-{[4-(but-2-ynyloxy)phenyl]sulfonyl}tryptophan]",pIC50,[2],6.12
same,pIC50,[3],4.82
same,pIC50,recombinant human MMP-2,5.11
"CC#CCOc1ccc(S(=O)(=O)NC(Cc2c[nH]c3ccc(C)cc23)C(=O)O)cc1 (racemic) [Example 6, N-{[4-(but-2-ynyloxy)phenyl]sulfonyl}-5-methyltryptophan]",pIC50,[2],6.55
same,pIC50,[3],5.16
same,pIC50,recombinant human MMP-2,5.94
"CC#CCOc1ccc(S(=O)(=O)N[C@@H](Cc2cn(Cc3cccc(C)c3)c3ccc(Cl)cc23)C(=O)O)cc1 [Example 73, N-{[4-(but-2-ynyloxy)phenyl]sulfonyl}-5-chloro-1-(3-methylbenzyl)tryptophan]",inhibition at 1 µM,[2],28%
"CC#CCOc1ccc(S(=O)(=O)N[C@@H](Cc2c(C)n(CC3CCC3)c3ccc(OC)cc23)C(=O)O)cc1 [Example 212, N-{[4-(but-2-ynyloxy)phenyl]sulfonyl}-1-(cyclobutylmethyl)-5-methoxy-2-methyltryptophan]",inhibition at 1 µM,[2],59.5%
"CC#CCOc1ccc(S(=O)(=O)N[C@@H](Cc2c(C)n(Cc3ccccc3C)c3ccc(OC)cc23)C(=O)O)cc1 [Example 186, N-{[4-(but-2-ynyloxy)phenyl]sulfonyl}-5-methoxy-2-methyl-1-(2-methylbenzyl)tryptophan]",pIC50,[2],6.55
"CC#CCOc1ccc(S(=O)(=O)N[C@@H](Cc2c(C)n(CCCCC)c3ccc(OC)cc23)C(=O)O)cc1 [Example 211, N-{[4-(but-2-ynyloxy)phenyl]sulfonyl}-5-methoxy-2-methyl-1-pentyltryptophan]",inhibition at 1 µM,[2],72.2%
"CC#CCOc1ccc(S(=O)(=O)N[C@@H](Cc2c(C)n(Cc3cc(F)cc(F)c3)c3ccc(OC)cc23)C(=O)O)cc1 [Example 200, N-{[4-(but-2-ynyloxy)phenyl]sulfonyl}-1-(3,5-difluorobenzyl)-5-methoxy-2-methyltryptophan]",inhibition at 1 µM,[2],80.5%
"CC#CCOc1ccc(S(=O)(=O)N[C@@H](Cc2cn(Cc3ccc(OC)cc3)c3ccc(C(=O)O)cc23)C(=O)O)cc1 [Example 109, N-{[4-(but-2-ynyloxy)phenyl]sulfonyl}-5-carboxy-1-(4-methoxybenzyl)tryptophan]",inhibition at 1 µM,[2],7.93%
"CC#CCOc1ccc(S(=O)(=O)N[C@@H](Cc2cn(Cc3cc(F)cc(F)c3)c3ccc(OC)cc23)C(=O)O)cc1 [Example 61, N-{[4-(but-2-ynyloxy)phenyl]sulfonyl}-1-(3,5-difluorobenzyl)-5-methoxytryptophan]",inhibition at 1 µM,[2],39.5%
"CC#CCOc1ccc(S(=O)(=O)N[C@@H](Cc2c(C)n(Cc3cccc(OC)c3)c3ccc(OC)cc23)C(=O)O)cc1 [Example 190, N-{[4-(but-2-ynyloxy)phenyl]sulfonyl}-5-methoxy-1-(3-methoxybenzyl)-2-methyltryptophan]",pIC50,[2],6.59
"CC#CCOc1ccc(S(=O)(=O)N[C@@H](Cc2c[nH]c3ccccc23)C(=O)O)cc1 [Example 2, N-{[4-(but-2-ynyloxy)phenyl]sulfonyl}-L-tryptophan]",pIC50,[2]; [4],5.09
"CC#CCOc1ccc(S(=O)(=O)N[C@@H](Cc2c(C)n(C)c3ccc(OC)cc23)C(=O)O)cc1 [Example 208, N-{[4-(but-2-ynyloxy)phenyl]sulfonyl}-5-methoxy-1,2-dimethyltryptophan]",inhibition at 1 µM,[2],61.8%
"CC#CCOc1ccc(S(=O)(=O)N[C@@H](Cc2c(C)n(Cc3cccc(C#N)c3)c3ccc(OC)cc23)C(=O)O)cc1 [Example 204, N-{[4-(but-2-ynyloxy)phenyl]sulfonyl}-1-(3-cyanobenzyl)-5-methoxy-2-methyltryptophan]",pIC50,[2],6.32
"CC#CCOc1ccc(S(=O)(=O)N[C@@H](Cc2cn(Cc3ccc(C(C)C)cc3)c3ccc(C(=O)O)cc23)C(=O)O)cc1 [Example 120, N-{[4-(but-2-ynyloxy)phenyl]sulfonyl}-5-carboxy-1-(4-isopropylbenzyl)tryptophan]",inhibition at 1 µM,[2],10%
"CC#CCOc1ccc(S(=O)(=O)N[C@H](Cc2cn(Cc3ccc(C#N)cc3)c3ccccc23)C(=O)O)cc1 [Example 45, N-{[4-(but-2-ynyloxy)phenyl]sulfonyl}-1-(4-cyanobenzyl)-D-tryptophan]",pIC50,[2],5.39
"CC#CCOc1ccc(S(=O)(=O)N[C@H](Cc2cn(Cc3ccc(F)cc3)c3ccccc23)C(=O)O)cc1 [Example 28, N-{[4-(but-2-ynyloxy)phenyl]sulfonyl}-1-(4-fluorobenzyl)-D-tryptophan]",pIC50,[2]; [4],5.72
same,pIC50,[3],4.77
same,pIC50,recombinant human MMP-2,5.40
"CC#CCOc1ccc(S(=O)(=O)N[C@@H](Cc2cn(Cc3ccc(F)cc3)c3ccc(C(=O)O)cc23)C(=O)O)cc1 [Example 117, N-{[4-(but-2-ynyloxy)phenyl]sulfonyl}-5-carboxy-1-(4-fluorobenzyl)tryptophan]",inhibition at 1 µM,[2],10.9%
"CC#CCOc1ccc(S(=O)(=O)N[C@@H](Cc2c(C)n(Cc3cc(F)cc(F)c3)c3ccccc23)C(=O)O)cc1 [Example 155, N-{[4-(but-2-ynyloxy)phenyl]sulfonyl}-1-(3,5-difluorobenzyl)-2-methyltryptophan]",inhibition at 1 µM,[2],54.3%
"CC#CCOc1ccc(S(=O)(=O)N[C@@H](Cc2cn(Cc3ccccc3F)c3ccc(Cl)cc23)C(=O)O)cc1 [Example 79, N-{[4-(but-2-ynyloxy)phenyl]sulfonyl}-5-chloro-1-(2-fluorobenzyl)tryptophan]",inhibition at 1 µM,[2],8.27%
"CC#CCOc1ccc(S(=O)(=O)N[C@@H](Cc2c(C)n(Cc3ccc(Cl)cc3)c3ccccc23)C(=O)O)cc1 [Example 156, N-{[4-(but-2-ynyloxy)phenyl]sulfonyl}-1-(4-chlorobenzyl)-2-methyltryptophan]",inhibition at 1 µM,[2],43.3%
"CC#CCOc1ccc(S(=O)(=O)N[C@@H](Cc2c(C)n(Cc3cccc(C(F)(F)F)c3)c3ccccc23)C(=O)O)cc1 [Example 149, N-{[4-(but-2-ynyloxy)phenyl]sulfonyl}-2-methyl-1-[3-(trifluoromethyl)benzyl]tryptophan]",inhibition at 1 µM,[2],50.5%
"CC#CCOc1ccc(S(=O)(=O)N[C@@H](Cc2c(C)n(Cc3ccc(C(C)C)cc3)c3ccc(OC)cc23)C(=O)O)cc1 [Example 202, N-{[4-(but-2-ynyloxy)phenyl]sulfonyl}-1-(4-isopropylbenzyl)-5-methoxy-2-methyltryptophan]",inhibition at 1 µM,[2],67%
"CC#CCOc1ccc(S(=O)(=O)N[C@H](Cc2cn(Cc3ccc(O)cc3)c3ccccc23)C(=O)O)cc1 [Example 214, N-{[4-(but-2-ynyloxy)phenyl]sulfonyl}-1-(4-hydroxybenzyl)-D-tryptophan]",inhibition at 1 µM,[2],8.77%
